According to patent US20130296441A1, “Anti-Obesity Properties of Pterostilbene” (priority 2012, published 2013):
Read-outs that look alike come from different tables or passages of the source. Marks after values point to notes of the source that are not given here.

Key:
[1] = Serum and tissue levels of pterostilbene by GC-MS; type: in vivo, rat; conditions: for concentration at 6 weeks: male, Wistar, rat, oral
Description: (§1) The experiment was conducted with twenty seven male Wistar rats with an initial body weight of 180±2 grams purchased from Harlan Ibérica (Barcelona, Spain), and took place in accordance with the University of the Basque Country's guide for the care and use of laboratory animals (Reference protocol approval CUEID CEBA/30/2010). The rats were individually housed in polycarbonate metabolic cages (Techniplast Gazzada, Guguggiate, Italy) and placed in an air-conditioned room (22±2° C.) with a 12 h light-dark cycle. After a 6-day adaptation period, rats were randomly divided in 3 dietary groups of nine animals each, and fed on a commercial obesogenic diet, high in sucrose (20.0%) and fat (22.5%) (Harlan Iberica, TD.06415). Pterostilbene was added to the diet. Rats in the pterostilbene groups received 15 mg/kg body weight/d (PT15 group) or 30 mg/kg body weight/d (PT30 group). All animals had free access to food and water. Food intake and body weight were daily measured.
Extraction of pterostilbene in the serum was according to published procedure (Kotani et al. 2003. J. Chromatogr. B. 788:269-275), with modifications. Serum from −80° C. storage was thawed on ice. To 50 μL serum was added 15 μL of β-glucuronidase (from E. coli, Type IX-A, Sigma-Aldrich, St. Louis, Mo., USA; 250 U/15 mL sodium phosphate buffer, 0.1M, pH 6.8) and 15 μL of sulfatase (from Abalone Entrails, Type VIII, Sigma-Aldrich, St. Louis, Mo., USA; 20 U/15 mL sodium phosphate buffer, 0.1M, pH 6.8), then vortex-mixed. This mixture was incubated for 20 hr at 37° C. while shaking at 750 rpm, cooled to room temperature, then partitioned with ethyl acetate (75 μL×3). The ethyl acetate layers were combined and dried under nitrogen. The dried sample was derivatized with 40 μL of N,O-bis[trimethylsilyl]-trifluoroacetamide: dimethyl-formamide (BSTFA:DMF, 1:1; Pierce Biotechnology, Inc., Rockford, Ill.), heated at 70° C. for 40 min and used for the analysis of pterostilbene by gas chromatography-mass spectrometry (GC-MS).
Pterostilbene in liver and muscle was extracted following published procedure (Hou et al. 2011. Planta Med. 77:455-460), with minor modifications. For liver, 100 mg fresh tissues were homogenized in 1 mL saline solution (0.9% NaCl in H2O). For muscle, 100 mg lyophilized tissue was homogenized in 1 mL sodium acetate buffer, pH 5. To the homogenates was added 300 μL enzyme solution (793.67 U/mL sulfatase and 666.66 U/mL β-glucuronidase in sodium acetate buffer, pH 5), vortex-mixed, and incubated at 37° C. for 16 hr while shaking at 750 rpm. To this mixture was added 100 μL of 0.1N HCl, then partitioned with ethyl acetate (800 μL×2). The ethyl acetate layers were combined, then dried under nitrogen. The dried sample was derivatized with BSTFA:DMF under the same conditions used for the analysis of pterostilbene in serum.
For the analysis of pterostilbene in epididymis and subcutaneous tissues, 100 mg of lyophilized tissue was homogenized in 300 μL of sodium acetate buffer, then sonicated for 30 min. To the homogenate was added 300 μl enzyme solution (793.67 U/mL sulfatase and 1333.33 U/mL β-glucuronidase in sodium acetate buffer, pH5) vortex-mixed, and incubated at 37° C., with shaking (750 rpm), for 16 hours. After incubation, 500 μl ice-cold acetonitrile was added, vortex-mixed for 1 min, then centrifuged at 800 rpm (Savant SpeedVac, model number SPD121P-120) for 20 min. The clear supernatant was collected, and again treated with 500 μl ice-cold acetonitrile, vortex-mixed and then centrifuged at 800 rpm for 20 min. The supernatant was then dried under a stream of nitrogen, then derivatized with BSTFA:DMF using the same conditions as in the analysis of pterostilbene in serum.
GC-MS analysis of pterostilbene in serum and tissues was performed using a J&W DB-5 capillary column (0.25 mm internal diameter, 0.25 μm film thickness, 30 m length; Agilent Technologies, Foster City, Calif.) on a JEOL GCMate II Instrument (JEOL USA Inc., Peabody, Mass.). […]

[2] = tested on: male Wistar rats fed obesogenic diet high in sucrose and fat; assay: Body weight, food intake, adipose tissue and muscle weights in rats fed an obesogenic diet with pterostilbene for 6 weeks; type: in vivo, rat; conditions: for decrease in total adipose tissue mass: versus control; for Adipose Tissue Weight, Epididymal / Adipose Tissue Weight, Interscapular Brown / Adipose Tissue Weight, Mesenteric / Adipose Tissue Weight, Perirenal / Adipose Tissue Weight, Subcutaneous / Adipose Tissue Weight, Total Fat Depots / Body Weight Increase / Food Intake / Final Body Weight: mean ± SEM; for Final Body Weight: n = 9, in g
Description: as §1
At the end of the 6-week experimental period, animals were sacrificed, under anaesthesia (chloral hydrate), by cardiac exsanguination. White adipose tissue from different anatomical locations (perirenal, epididymal, mesenteric and subcutaneous) and liver were dissected, weighed and immediately frozen.

[3] = tested on: mice; conditions: mice fed 28 days at doses up to 3000 mg/kg body weight/d; cited from earlier work
[4] = in vivo; cited from earlier work
[5] = PT15: 15 mg/kg body weight/d in diet
[6] = PT30: 30 mg/kg body weight/d in diet

## COc1cc(/C=C/c2ccc(O)cc2)cc(OC)c1 [pterostilbene]
[1]; PT15: 15 mg/kg body weight/d in diet, 6 weeks
  Muscle level of pterostilbene: Not Detected
[1]; epididymis, PT15: 15 mg/kg body weight/d in diet, dry weight, n = 8, read-out: Epididymis level of pterostilbene
  concentration at 6 weeks: 10.9 ± 5.3 ng/g
[1]; epididymis, PT30: 30 mg/kg body weight/d in diet, dry weight, n = 8, read-out: Epididymis level of pterostilbene
  concentration at 6 weeks: 30.7 ± 11 ng/g
[1]; liver, PT15: 15 mg/kg body weight/d in diet, fresh weight, n = 8, read-out: Liver level of pterostilbene
  concentration at 6 weeks: 308 ± 117 ng/g
[1]; liver, PT30: 30 mg/kg body weight/d in diet, fresh weight, n = 6, read-out: Liver level of pterostilbene
  concentration at 6 weeks: 726 ± 112 ng/g
[1]; muscle, PT30: 30 mg/kg body weight/d in diet, dry weight, n = 8, read-out: Muscle level of pterostilbene
  concentration at 6 weeks: 9.1 ± 2 ng/g
[1]; serum, PT15: 15 mg/kg body weight/d in diet, after glucuronidase/sulfatase hydrolysis, n = 8, read-out: Serum level of pterostilbene
  concentration at 6 weeks: 384 ± 54.7 ng/mL
[1]; serum, PT30: 30 mg/kg body weight/d in diet, after glucuronidase/sulfatase hydrolysis, n = 6, read-out: Serum level of pterostilbene
  concentration at 6 weeks: 789 ± 246 ng/mL
[1]; subcutaneous tissue, PT15: 15 mg/kg body weight/d in diet, dry weight, n = 7, read-out: Subcutaneous tissue level of pterostilbene
  concentration at 6 weeks: 20.5 ± 13.7 ng/g
[1]; subcutaneous tissue, PT30: 30 mg/kg body weight/d in diet, dry weight, n = 7, read-out: Subcutaneous tissue level of pterostilbene
  concentration at 6 weeks: 35.4 ± 7.7 ng/g
[2]; PT15: 15 mg/kg BW/d
  decrease in total adipose tissue mass: 15.1%
[2]; [5]
  Adipose Tissue Weight, Epididymal: 10.5 ± 0.9 g
  Adipose Tissue Weight, Interscapular Brown: 1.01 ± 0.23 g
  Adipose Tissue Weight, Mesenteric: 5.2 ± 0.4^ab g
  Adipose Tissue Weight, Perirenal: 12.0 ± 1.1^ab g
  Adipose Tissue Weight, Subcutaneous: 12.6 ± 1.2^b g
  Adipose Tissue Weight, Total Fat Depots: 40.3 ± 3.0^b g
  Body Weight Increase: 206 ± 9 g
  Food Intake: 17.7 ± 0.5 g/day
  Final Body Weight: 382 ± 5
[2]; PT30: 30 mg/kg BW/d
  decrease in total adipose tissue mass: 22.9%
[2]; [6]
  Adipose Tissue Weight, Epididymal: 10.5 ± 1.1 g
  Adipose Tissue Weight, Interscapular Brown: 0.75 ± 0.05 g
  Adipose Tissue Weight, Mesenteric: 4.8 ± 0.5^b g
  Adipose Tissue Weight, Perirenal: 11.2 ± 1.0^b g
  Adipose Tissue Weight, Subcutaneous: 12.7 ± 1.6^b g
  Adipose Tissue Weight, Total Fat Depots: 36.6 ± 3.5^b g
  Body Weight Increase: 200 ± 6 g
  Food Intake: 17.5 ± 0.3 g/day
  Final Body Weight: 382 ± 5
[3]
  toxic or adverse biochemical effects compared to controls: no significant toxic or adverse biochemical effects
[4]
  half-life: approximately 2 hr
